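Five concentrations, 48 hours, 96-well plates. TGI marks complete inhibition of growth.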
Experiments:
Assay in all cases: NCI-60 cell line screen, 48 h
COLO 205 colon = system: COLO 205 colon
HS 578T breast = system: HS 578T breast
KM12 colon = system: KM12 colon
LOX IMVI melanoma = system: LOX IMVI melanoma
MCF7 breast = system: MCF7 breast
NCI-H226 lung = system: NCI-H226 lung
OVCAR-5 ovarian = system: OVCAR-5 ovarian
RPMI-8226 leukemia = system: RPMI-8226 leukemia
UO-31 renal = system: UO-31 renal
HL-60(TB) leukemia = system: HL-60(TB) leukemia

Row | SMILES | TGI (COLO 205 colon) | TGI (HS 578T breast) | TGI (KM12 colon) | TGI (LOX IMVI melanoma) | TGI (MCF7 breast) | TGI (NCI-H226 lung) | TGI (OVCAR-5 ovarian) | TGI (RPMI-8226 leukemia) | TGI (UO-31 renal) | TGI (HL-60(TB) leukemia)
1 | Clc1ccc(OCc2nnc(CCCCCCCCc3nnc(COc4ccc(Cl)cc4)n3Nc3ccccc3)n2Nc2ccccc2)cc1 | 0.894 µM | > 100 µM | 36.9 µM | 42.6 µM | > 100 µM | > 100 µM | > 100 µM | 5.13 µM | > 95.1 µM | –
2 | Cc1cccc(C)c1NC(=O)C(=O)C1C(=O)NC(=O)NC1=O | > 100 µM | – | > 100 µM | > 100 µM | – | > 100 µM | > 100 µM | > 100 µM | > 100 µM | > 100 µM
3 | CCC(=O)Oc1c2ccsc2c(OC(=O)CC)c2ccsc12 | 10.6 µM | 1.2 µM | 3.34 µM | – | 3.43 µM | 4.09 µM | 3.35 µM | – | 1.45 µM | –
4 | Cc1cn([C@@H]2C[C@H]2CO)c(=O)[nH]c1=O | > 100 µM | – | > 100 µM | > 100 µM | > 100 µM | > 100 µM | > 100 µM | > 100 µM | > 100 µM | > 100 µM
5 | O=C1NC2OC(CO)C(O)C(O1)C2O (stereo not given) | > 100 µM | – | > 100 µM | > 100 µM | – | > 100 µM | > 100 µM | > 100 µM | > 100 µM | > 100 µM
6 | Cc1cc2ncc3c(=O)n(NS(=O)(=O)c4ccc(N)cc4)ccc3n2n1 | > 100 µM | > 100 µM | > 100 µM | > 100 µM | > 100 µM | > 100 µM | > 100 µM | – | > 100 µM | > 100 µM
7 | CC1(C(=O)O)CCCC1C(=O)O (stereo not given) | – | > 100 µM | > 100 µM | > 100 µM | – | > 100 µM | > 100 µM | > 100 µM | > 100 µM | > 100 µM
8 | O=C(CC1=NCCN1)c1ccccc1 | > 750 µM | – | > 750 µM | > 750 µM | > 750 µM | 742 µM | > 750 µM | > 750 µM | > 750 µM | > 750 µM
9 | C=C1CC(C)(c2ccc(Nc3nc4ccccc4c4occc34)cc2)OC1=O (stereo not given) | 16.2 µM | – | 34 µM | – | > 100 µM | 1.94 µM | 30.6 µM | 4.47 µM | – | 6.34 µM
10 | CC(C)(C)C1CCC2(CC1)c1[nH]c3ccccc3c1C1(CCC(C(C)(C)C)CC1)c1[nH]c3ccccc3c12 (stereo not given) | > 100 µM | – | > 100 µM | > 100 µM | – | > 100 µM | > 100 µM | > 100 µM | > 100 µM | > 100 µM
11 | c1ccc2c3c(c(N4CCOCC4)nc2c1)CCCC3 | 46.5 µM | > 100 µM | > 100 µM | > 100 µM | > 100 µM | 68.1 µM | 81.2 µM | – | > 100 µM | 69.3 µM
12 | O=C1C=CC(=O)c2c(O)c(NCCc3ccc(O)cc3)c(Cl)c(O)c21 | > 10 µM | – | > 10 µM | > 10 µM | > 10 µM | > 10 µM | > 10 µM | > 10 µM | – | > 10 µM
13 | NC1CNC(=O)c2c(Cl)sc(Cl)c21 (stereo not given) | > 100 µM | > 100 µM | > 100 µM | > 100 µM | > 100 µM | > 100 µM | > 100 µM | > 100 µM | > 100 µM | –
14 | Cc1cn(C(C)OCCN2C(=O)c3ccccc3C2=O)c(=O)[nH]c1=O (stereo not given) | > 100 µM | – | > 100 µM | > 100 µM | > 100 µM | > 100 µM | > 100 µM | > 100 µM | > 100 µM | –
15 | O=c1[nH]nc(-c2ccccc2)c2[nH]c(-c3ccccc3)cc12 | > 100 µM | > 100 µM | > 100 µM | > 100 µM | – | – | > 100 µM | > 100 µM | > 100 µM | > 100 µM
16 | Cc1cc2[nH]c3c(C#N)c4c(c(=O)n3c2cc1C)CCCC4 | > 100 µM | > 100 µM | > 100 µM | > 100 µM | > 100 µM | > 100 µM | 32.7 µM | – | > 100 µM | > 100 µM
17 | CN(C)S(=O)(=O)Nc1nnc(S(N)(=O)=O)s1 | > 100 µM | > 100 µM | > 100 µM | – | > 100 µM | > 100 µM | > 100 µM | > 100 µM | > 100 µM | > 100 µM
18 | CCOC(=O)C1=C(OC(OCC)C(CC)[Se]c2ccccc2)CCCC1 (stereo not given) | > 100 µM | – | > 100 µM | 18.7 µM | – | 61.3 µM | 67.7 µM | 39.3 µM | > 100 µM | 47.8 µM
19 | NC(=O)c1cc2ccccc2o/c1=N/O | > 100 µM | 91.6 µM | > 100 µM | > 100 µM | > 100 µM | > 100 µM | – | > 100 µM | > 100 µM | > 100 µM
20 | COC1(OC)CCCCC2c3cccc(OC(C)=O)c3C21OC(C)=O (stereo not given) | > 100 µM | – | > 100 µM | > 100 µM | – | > 100 µM | > 100 µM | > 100 µM | > 100 µM | > 100 µM
21 | O=C1C=C(c2ccccc2)O/C1=C/C(=O)c1ccc(Cl)cc1 | 30.1 µM | 55.5 µM | 36.7 µM | 26.1 µM | 30.1 µM | – | 43.3 µM | 25.9 µM | 38.9 µM | 5.38 µM
22 | CSc1nc2c(c(=O)n1C)N=C(c1ccccc1)[C@H](C(CC(=O)c1ccccc1)c1ccccc1)C(c1ccccc1)N2 (stereo not given in full) | > 100 µM | – | > 100 µM | > 100 µM | > 100 µM | > 100 µM | > 100 µM | > 100 µM | > 100 µM | > 100 µM
